Values after ≈ are worked out from the molar mass of the structure shown.
Details: buffer; pH 7.4; 200.0 µM
In the case of `O=S(=O)(Cc1ccccc1)Cc1cnc(Cl)s1`, the solubility kinetic is reported as > 43.2 µg/mL.
For `Cc1ccc(C(=O)Cn2cncn2)cc1.Cl`, the solubility kinetic was > 35.7 µg/mL.
Work on `COc1ccc(CC(C)NC2CCCCCC2)cc1` (centres undefined) yielded a solubility kinetic of 31 µg/mL (≈ 119 µM).
Work on `Cc1ccc(NC(=O)Cn2cnc3cc([N+](=O)[O-])ccc3c2=O)cc1` yielded a solubility kinetic of 3.9 µg/mL (≈ 11.5 µM).
In the case of `CCOc1ccc(CN(C)CC(=O)Nc2cccc(C)c2)cc1OC`, the solubility kinetic is reported as > 51.4 µg/mL.
For `COc1cccc(OC)c1C(=O)Nc1nc(-c2ccccc2)cs1`, the solubility kinetic was 1.6 µg/mL (≈ 4.7 µM).
For `O=C(Nc1ccc(-c2cnco2)cc1)c1ccccc1`, the solubility kinetic was < 0.3 µg/mL.
With `CCc1ccc(OC)c(S(=O)(=O)NCc2cccs2)c1` the solubility kinetic was > 46.7 µg/mL.
In the case of `COC(=O)CN1C(=O)COc2ccc(S(=O)(=O)NCc3ccccc3)cc21`, the solubility kinetic is reported as 58.3 µg/mL (≈ 149 µM).
Compound `CC(=O)C1=C(Nc2ccccc2)CC(C)(O)C(C(C)=O)C1c1ccccc1` (centres undefined) has a solubility kinetic of 4.1 µg/mL (≈ 11.3 µM).
For `CCCn1c2c(c(=N)c3c1CCC3)CCC2.I`, the solubility kinetic was > 51.6 µg/mL.
In the case of `CC1=C(C#N)C(c2ccc(O)cc2)C(C#N)=C(C)N1`, the solubility kinetic is reported as > 37.7 µg/mL.
With `Cn1c(=O)oc2cc(S(=O)(=O)Nc3ccc(O)cc3)ccc21` the solubility kinetic was > 48 µg/mL.
Compound `O=C(Cc1ccccc1[N+](=O)[O-])Nc1ccc2c(c1)OCO2` has a solubility kinetic of 14.6 µg/mL (≈ 48.6 µM).
With `Fc1cccc2sc(N3CCCC3)nc12` the solubility kinetic was 17.4 µg/mL (≈ 78.3 µM).
In the case of `Cc1cccc(N=C2NC(=O)/C(=C/c3cccnc3)S2)c1`, the solubility kinetic is reported as 2.7 µg/mL (≈ 9.14 µM).
`CN(C)c1ccc(NC(=O)CN2C(=O)c3ccccc3C2=O)cc1` showed a solubility kinetic of 11.3 µg/mL (≈ 34.9 µM).
Compound `COc1ccccc1CCNC(C)CCc1ccc(O)cc1` (centres undefined) has a solubility kinetic of 33.2 µg/mL (≈ 111 µM).
In the case of `Cl.O=C(CN1CCCC1)Nc1ccc2c(c1)CCC2`, the solubility kinetic is reported as 41.3 µg/mL.
Compound `Cc1cccc(C(=O)OCC(=O)N2CCc3ccccc3C2)c1O` has a solubility kinetic of 6.8 µg/mL (≈ 20.9 µM).
With `CCCc1ccc(-c2ccc(-c3noc(-c4ccncc4)n3)cc2)nc1` the solubility kinetic was < 0.2 µg/mL.
In the case of `CC1(C)CC(NC(=O)c2ccc(Cl)cc2)CC(C)(C)N1`, the solubility kinetic is reported as > 44.2 µg/mL.
In the case of `Cc1ccccc1OCC1Cn2c(nc3c2c(=O)n(C)c(=O)n3C)O1` (centres undefined), the solubility kinetic is reported as > 51.4 µg/mL.
In the case of `CCOc1ccc(CN(C)C(=O)CNC(=O)C2CCCCC2)cc1`, the solubility kinetic is reported as > 49.9 µg/mL.
In the case of `CC(=O)c1cccc(S(=O)(=O)N2CCC(C(=O)O)CC2)c1`, the solubility kinetic is reported as > 46.7 µg/mL.
With `CC(C)c1ccc(NC(=S)N2CCN(C)CC2)cc1` the solubility kinetic was > 41.6 µg/mL.
With `O=c1[nH]c(Cc2cccc(C(F)(F)F)c2)nc2ccccc12` the solubility kinetic was < 0.3 µg/mL.
`Fc1cccc(Cl)c1CNc1ccc(N2CCCC2)cc1` gave a solubility kinetic of 0.7 µg/mL (≈ 2.3 µM).
For `CCOC(=O)Cn1cc(C(=O)C(=O)N2CCOCC2)c2ccccc21`, the solubility kinetic was > 51.7 µg/mL.
With `CCCCN1C(=O)N(c2ccccc2Cl)C(C)(O)CC1(C)C` (centres undefined) the solubility kinetic was 47.6 µg/mL (≈ 147 µM).
`O=C(NCc1ccccn1)Nc1ccc(Br)cc1` gave a solubility kinetic of 14.9 µg/mL (≈ 48.7 µM).
For `CCOC(=O)N1CCC2(CC1)C(C#N)=C(N)OC1=C2C(=O)CCC1`, the solubility kinetic was > 49.7 µg/mL.
With `CCOC(=O)N1CCN(C(=O)C2CCN(C(=O)Nc3ccccc3)CC2)CC1` the solubility kinetic was > 58.3 µg/mL.
For `O=C(COC(=O)CCC(=O)c1cccs1)NCc1cccs1`, the solubility kinetic was > 50.6 µg/mL.
With `Cc1ccnc(SCC(=O)N2CCCc3ccccc32)n1` the solubility kinetic was > 44.9 µg/mL.
In the case of `O=C(Nc1cccc(S(=O)(=O)N2CCOCC2)c1)c1ccc(Cl)nc1`, the solubility kinetic is reported as > 57.3 µg/mL.
For `CCC(=Nc1cccc(C(F)(F)F)c1)c1c(O)n(C)c(=O)n(C)c1=O`, the solubility kinetic was 6.4 µg/mL (≈ 18 µM).
For `COC(=O)c1cc(OC)c(OC)cc1N1C(=O)CC(C)(C)CC1=O`, the solubility kinetic was > 50.3 µg/mL.
With `Cc1cccnc1NC(=O)CNC(=O)C1CCCCC1` the solubility kinetic was > 41.3 µg/mL.
`COc1ccccc1-n1ccnc1SCC(=O)NCc1ccco1` gave a solubility kinetic of 48.4 µg/mL (≈ 141 µM).
For `Cc1ccc(C(=O)NCN2CCN(c3ccccc3)CC2)cc1`, the solubility kinetic was > 46.4 µg/mL.
With `Br.C=CCn1c(=N)n(CC(=O)c2ccccc2)c2ccccc21` the solubility kinetic was > 55.8 µg/mL.
With `Cc1ccc(SCC(=O)NC2CC2)cc1` the solubility kinetic was > 33.2 µg/mL.
In the case of `CCOc1ccc(NCCC(O)c2ccc(F)cc2)cc1` (centres undefined), the solubility kinetic is reported as 30.9 µg/mL (≈ 107 µM).
For `NC(=O)CSc1nnc(Cc2ccc3c(c2)OCO3)o1`, the solubility kinetic was > 44 µg/mL.
Work on `CC(=O)N1CCN(c2ccccc2NC(=O)COc2ccccc2C)CC1` yielded a solubility kinetic of 49.7 µg/mL (≈ 135 µM).
`CCOC(=O)c1sc2nc(C)nc(N3CCN(S(=O)(=O)c4ccccc4)CC3)c2c1C` showed a solubility kinetic of 2.5 µg/mL (≈ 5.43 µM).
With `Nc1nc2ccccc2n1Cc1ccc(Cl)c(Cl)c1` the solubility kinetic was 33.1 µg/mL (≈ 113 µM).
In the case of `Cc1ccc(NC(=O)C2CC(Cl)=CCC2C(=O)O)c([N+](=O)[O-])c1` (centres undefined), the solubility kinetic is reported as > 50.8 µg/mL.
Compound `Cc1cc(C)cc(NC(=O)NCC(O)COc2ccc([N+](=O)[O-])cc2)c1` (centres undefined) has a solubility kinetic of 6.1 µg/mL (≈ 17 µM).
With `O=C(/C=C/c1ccco1)N1CCc2ccccc21` the solubility kinetic was 31.4 µg/mL (≈ 131 µM).
For `Cc1cc(C)c2c(N)c(C(=O)Nc3ccc([N+](=O)[O-])cc3)sc2n1`, the solubility kinetic was < 0.2 µg/mL.
In the case of `Cc1ccc(-c2cc(C(=O)N3CCC(C)CC3)c3ccccc3n2)cc1`, the solubility kinetic is reported as 6.6 µg/mL (≈ 19.2 µM).
In the case of `CCOC(=O)c1cc(NC(=O)c2cccnc2)ccc1N1CCOCC1`, the solubility kinetic is reported as > 53.3 µg/mL.
Work on `CCOC(=O)C1CCN(S(=O)(=O)c2ccccc2[N+](=O)[O-])CC1` yielded a solubility kinetic of 44.1 µg/mL (≈ 129 µM).
With `Cc1ccc(CNC(=O)C2CC(=O)N(CCC(C)C)C2)cc1` (centres undefined) the solubility kinetic was 40.5 µg/mL (≈ 134 µM).
For `CCC(=O)Nc1cccc(C(=O)c2ccc(C)c(C)c2)c1`, the solubility kinetic was 28 µg/mL (≈ 99.5 µM).
In the case of `CCCCN(C(=O)C1=NN(c2ccccc2)C(=O)CC1)c1c(N)n(CCC)c(=O)[nH]c1=O`, the solubility kinetic is reported as > 66.1 µg/mL.
For `Nc1ccccc1NC(=O)NC(=O)c1ccccc1`, the solubility kinetic was 6.1 µg/mL (≈ 23.9 µM).
With `COc1ccccc1-n1cccc1C=O` the solubility kinetic was > 30.2 µg/mL.
`COc1cc(C(=O)OCC2CC(c3ccccc3)=NO2)cc(OC)c1OC` (centres undefined) gave a solubility kinetic of 38.2 µg/mL (≈ 103 µM).
For `O=C(O)CCCC(=O)Nc1ccc2c(c1)oc1ccccc12`, the solubility kinetic was > 44.6 µg/mL.
With `O=C(NC12CC3CC(CC(C3)C1)C2)c1ccco1` the solubility kinetic was 36.5 µg/mL (≈ 149 µM).
In the case of `CC(C)Cc1nnc(NC(=O)CCC(=O)N2CCCCC2)s1`, the solubility kinetic is reported as > 48.7 µg/mL.
For `CN(C)c1cc[n+](CC(=O)Nc2ccc(OC(F)F)cc2)cc1.[Cl-]`, the solubility kinetic was > 53.7 µg/mL.
For `O=C1CN(C(=O)COC(=O)CCc2ccccc2O)c2ccccc2N1`, the solubility kinetic was > 53.2 µg/mL.
Compound `CCCc1cc(=O)[nH]c(SCC(=O)NC2CCCCCCC2)n1` has a solubility kinetic of 14.5 µg/mL (≈ 43 µM).
Work on `C=CCSc1ncnc2c1oc1nc3c(cc12)COC(C)(C)C3` yielded a solubility kinetic of 1.3 µg/mL (≈ 3.97 µM).
In the case of `CC(C)(CN1CCc2ccccc2C1)NS(=O)(=O)c1ccccc1`, the solubility kinetic is reported as 34.8 µg/mL (≈ 101 µM).
`O=[N+]([O-])c1ccc(CSc2ccc(S(=O)(=O)N3CCCCC3)cn2)cc1` gave a solubility kinetic of 2.4 µg/mL (≈ 6.1 µM).
In the case of `O=c1[nH]c(/C=C\c2cccc(Cl)c2)nc(O)c1[N+](=O)[O-]`, the solubility kinetic is reported as > 44.1 µg/mL.
In the case of `Cc1ccc(-c2c[n+](CC(=O)Nc3ccc(C)cc3C)c3n2CCC3)cc1.[Cl-]`, the solubility kinetic is reported as > 59.4 µg/mL.
Compound `CCn1c(=O)n(CC)c2cc(NC(=O)c3ccccc3Cl)ccc21` has a solubility kinetic of 50.4 µg/mL (≈ 147 µM).
In the case of `CCN(CC(=O)Nc1ccc(NC(C)=O)cc1)C(=O)c1c(C)nn(-c2ccc(F)cc2)c1Cl`, the solubility kinetic is reported as > 70.8 µg/mL.
With `CCNC(=O)NC(=O)C(C)OC(=O)c1cccn1C` (centres undefined) the solubility kinetic was > 40.1 µg/mL.
For `c1ccc(-c2nc(NCc3cccs3)c3ccccc3n2)cc1`, the solubility kinetic was 0.7 µg/mL (≈ 2.21 µM).
`Cc1cc(Cl)cc(C)c1OCCCCCn1ccnc1` gave a solubility kinetic of 30.7 µg/mL (≈ 105 µM).
Work on `O=S(=O)(c1ccc(N2CCCC2)nc1)N1CCCC1` yielded a solubility kinetic of 36.4 µg/mL (≈ 129 µM).
Compound `O=C(NCCNc1ccc([N+](=O)[O-])cc1)c1ccc(Cl)cc1` has a solubility kinetic of 1.9 µg/mL (≈ 5.94 µM).
In the case of `Cc1ccc(NC(=O)NCCCN2CCCC2=O)cc1Cl`, the solubility kinetic is reported as > 46.5 µg/mL.
With `CCNS(=O)(=O)c1ccc(CCC(=O)NCc2ccncc2)cc1` the solubility kinetic was > 52.1 µg/mL.
With `CCC(=O)Nc1nc(-c2ccccc2)nc(SC)c1C(C)=O` the solubility kinetic was 0.4 µg/mL (≈ 1.27 µM).
For `CC(=O)c1ccc(NC(=O)c2ccc3nc(C)sc3c2)cc1`, the solubility kinetic was 1.9 µg/mL (≈ 6.12 µM).
In the case of `CC1CC(C)CN(C(=O)c2ccc(C#N)cc2)C1` (centres undefined), the solubility kinetic is reported as > 36.3 µg/mL.

Reference: PubChem BioAssay AID1996
